Test results reported in patent US20260256792A1, “TREATMENT OF CHRONIC SPONTANEOUS URTICARIA BY ADMINISTERING (R)-2-[3-[4-AMINO-3-(2-FLUORO-4-PHENOXY-PHENYL)PYRAZOLO[3,4-D]PYRIMIDIN-1-YL]PIPERIDINE-1-CARBONYL]-4-METHYL-4-[4-(OXETAN-3-YL)PIPERAZIN-1-YL]PENT-2-ENENITRILE” (priority 2023, published 2026).

Test system: moderate-to-severe chronic spontaneous urticaria (CSU)
Assay: Phase 2 CSU study: urticaria activity score over 7 days (UAS7)
Assay type: in vivo, human
Design: key to UAS7 Median / UAS7 Change from baseline Median / UAS7 change from baseline, Q1 / UAS7 change from baseline, Q3 / UAS7 change from baseline, Max / UAS7 Change from baseline LS Mean (SE): UAS7 points; daily UAS score ranges 0–6 points/day, over 7 days
Text: The study comprises a 12 week, randomized, double-blind, placebo-controlled, multi-center, dose-ranging efficacy and safety phase, followed by a 40 week open label extension (OLE) phase (see FIG. 1). The study consists of three phases and an optional OLE phase. […] Clinically, CSU is characterized by the spontaneous and recurrent appearance of pruritic hives. The proposed primary endpoints were the UAS7 at Week 12 in EU and EU reference countries and the ISS7 in the US. Regardless of where a participant was from, all assessments were the same. The UAS7 score is a composite score containing both the HSS7 and the ISS7. This allowed a global assessment of the two key components of urticaria: hives and itch. […] The UAS is a validated PRO measure. […] The daily UAS scores range from 0 to 6 point/day. […] Patients were to complete the UAS using the e-diary. […] The following secondary endpoints were to be analyzed using the same approach as for the primary endpoint: • Change from baseline in UAS7 at Week 4 • Change from baseline in UAS7 at Week 12 (for US and US reference countries) • Change from baseline in ISS7 at Week 12 (except US and US reference countries) • Change from baseline in HSS7 at Week 12 The following responder secondary endpoints were to be analyzed using the Cochran-Mantel-Haenszel test adjusted by region: • Proportion of participants with UAS7<6 at Week 12 • Proportion of participants with UAS7=0 at Week 12 Participants who received selected prohibited medications and/or rescue medications were to be considered as non-responders for time points after the medication usage. For other participants, all available data including those collected during the off-treatment period were to be used to determine the responder/non-responder status. Missing data were to be considered as non-responders.

[1] = Week 2, 400 mg TID, ITT population
[2] = Week 2, 400 mg TID, Omalizumab-Naïve
[3] = Week 2, 400 mg TID, Prior Omalizumab Use
[4] = Week 2, 400 mg TID, omalizumab-naive participants
[5] = Week 3, 400 mg BID, ITT population
[6] = Week 3, 400 mg BID, Omalizumab-Naïve
[7] = Week 3, 400 mg BID, Prior Omalizumab Use
[8] = Week 3, 400 mg BID, omalizumab-naive participants
[9] = Week 3, 400 mg QPM, ITT population
[10] = Week 3, 400 mg QPM, Omalizumab-Naïve
[11] = Week 3, 400 mg QPM, Prior Omalizumab Use
[12] = Week 3, 400 mg QPM, omalizumab-naive participants
[13] = Week 3, 400 mg TID, ITT population
[14] = Week 3, 400 mg TID, Omalizumab-Naïve

CC(C)(C=C(C#N)C(=O)N1CCC[C@@H](n2nc(-c3ccc(Oc4ccccc4)cc3F)c3c(N)ncnc32)C1)N1CCN(C2COC2)CC1 [rilzabrutinib, (R)-2-[3-[4-amino-3-(2-fluoro-4-phenoxy-phenyl)pyrazolo[3,4-d]pyrimidin-1-yl]piperidine-1-carbonyl]-4-methyl-4-[4-(oxetan-3-yl)piperazin-1-yl]pent-2-enenitrile]
OR for rilzabrutinib vs. placebo, UAS7 reduction of 10 points or more [1]: 5.982
RRD (%) for rilzabrutinib vs. placebo, UAS7 reduction of 10 points or more [1]: 40.6 %
Responder, UAS7 reduction from baseline of 10 points or more [1]: 28 (68.3) n (%)
UAS7 Change from baseline Mean (SD) [2]: −13.69 (11.66)
UAS7 Change from baseline Median [2]: −11.00
UAS7 Mean (SD) [2]: 15.65 (10.66)
UAS7 Median [2]: 14.00
UAS7 Percent change from baseline Mean (SD) [2]: −45.70 (36.18) %
UAS7 Percent change from baseline Median [2]: −46.67%
UAS7 Change from baseline Mean (SD) [3]: −24.69 (11.86)
UAS7 Change from baseline Median [3]: −22.50
UAS7 Mean (SD) [3]: 8.33 (9.77)
UAS7 Median [3]: 5.50
UAS7 Percent change from baseline Mean (SD) [3]: −75.38 (23.12) %
UAS7 Percent change from baseline Median [3]: −73.96%
Non-responder, UAS7 reduction from baseline of 10 points or more [4]: 13 (37.1) n (%)
OR for rilzabrutinib vs. placebo, UAS7 reduction of 10 points or more [4]: 5.505
RRD (%) for rilzabrutinib vs. placebo, UAS7 reduction of 10 points or more [4]: 39.0 %
Responder, UAS7 reduction from baseline of 10 points or more [4]: 22 (62.9) n (%)
Non-responder, UAS7 reduction from baseline of 10 points or more [5]: 20 (48.8) n (%)
OR for rilzabrutinib vs. placebo, UAS7 reduction of 10 points or more [5]: 2.109
RRD (%) for rilzabrutinib vs. placebo, UAS7 reduction of 10 points or more [5]: 18.0 %
Responder, UAS7 reduction from baseline of 10 points or more [5]: 21 (51.2) n (%)
UAS7 Change from baseline Mean (SD) [6]: −12.02 (10.63)
UAS7 Change from baseline Median [6]: −9.00
UAS7 Mean (SD) [6]: 17.71 (11.91)
UAS7 Median [6]: 16.80
UAS7 Percent change from baseline Mean (SD) [6]: −41.11 (35.05) %
UAS7 Percent change from baseline Median [6]: −32.14%
UAS7 Change from baseline Mean (SD) [7]: −15.81 (16.39)
UAS7 Change from baseline Median [7]: −15.00
UAS7 Mean (SD) [7]: 17.19 (13.86)
UAS7 Median [7]: 18.58
UAS7 Percent change from baseline Mean (SD) [7]: −44.47 (44.78) %
UAS7 Percent change from baseline Median [7]: −41.73%
Non-responder, UAS7 reduction from baseline of 10 points or more [8]: 18 (51.4) n (%)
OR for rilzabrutinib vs. placebo, UAS7 reduction of 10 points or more [8]: 2.057
RRD (%) for rilzabrutinib vs. placebo, UAS7 reduction of 10 points or more [8]: 17.2 %
Responder, UAS7 reduction from baseline of 10 points or more [8]: 17 (48.6) n (%)
Non-responder, UAS7 reduction from baseline of 10 points or more [9]: 22 (57.9) n (%)
OR for rilzabrutinib vs. placebo, UAS7 reduction of 10 points or more [9]: 1.663
RRD (%) for rilzabrutinib vs. placebo, UAS7 reduction of 10 points or more [9]: 11.7 %
Responder, UAS7 reduction from baseline of 10 points or more [9]: 16 (42.1) n (%)
UAS7 Change from baseline Mean (SD) [10]: −9.10 (8.78)
UAS7 Change from baseline Median [10]: −7.00
UAS7 Mean (SD) [10]: 22.01 (9.00)
UAS7 Median [10]: 22.00
UAS7 Percent change from baseline Mean (SD) [10]: −28.09 (25.63) %
UAS7 Percent change from baseline Median [10]: −26.67%
UAS7 Change from baseline Mean (SD) [11]: −22.00 (NC)
UAS7 Change from baseline Median [11]: −22.00
UAS7 Mean (SD) [11]: 19.00 (NC)
UAS7 Median [11]: 19.00
UAS7 Percent change from baseline Mean (SD) [11]: −53.66 (NC) %
UAS7 Percent change from baseline Median [11]: −53.66%
Non-responder, UAS7 reduction from baseline of 10 points or more [12]: 22 (59.5) n (%)
OR for rilzabrutinib vs. placebo, UAS7 reduction of 10 points or more [12]: 1.665
RRD (%) for rilzabrutinib vs. placebo, UAS7 reduction of 10 points or more [12]: 11.4 %
Responder, UAS7 reduction from baseline of 10 points or more [12]: 15 (40.5) n (%)
Non-responder, UAS7 reduction from baseline of 10 points or more [13]: 14 (34.1) n (%)
OR for rilzabrutinib vs. placebo, UAS7 reduction of 10 points or more [13]: 3.444
RRD (%) for rilzabrutinib vs. placebo, UAS7 reduction of 10 points or more [13]: 31.4 %
Responder, UAS7 reduction from baseline of 10 points or more [13]: 27 (65.9) n (%)
UAS7 Change from baseline Mean (SD) [14]: −13.97 (12.14)
UAS7 Change from baseline Median [14]: −14.00
UAS7 Mean (SD) [14]: 15.37 (9.87)
UAS7 Median [14]: 14.00
